pIC50: −log10 of the molar value.
Columns and labels:
[1] = test system: HEK-Blue IL-23 cells (IL-23-stimulated STAT3 SEAP reporter; TYK2 JH2); assay: HEK-Blue IL-23 SEAP reporter assay for profiling TYK2 pseudokinase (JH2) inhibition; type: cell-based; conditions: 10 ng/mL human recombinant IL-23, SEAP reporter, read-out: IL23 (TYK2 inhibitory activity, IC50)
Summary of the method: (§1)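 Cells were pretreated 60 min with serially diluted compounds, then stimulated with 10 ng/mL human IL-23 for 22-24 hours (STAT3 line) or 1 ng/mL human IFNα for 16-18 h (STAT1 line). SEAP induction read with QUANTI-Blue.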

[2] = test system: HEK-Blue IFNα/β cells (IFNα-stimulated STAT1 SEAP reporter; TYK2 JH2); assay: HEK-Blue IFNα/β SEAP reporter assay for profiling TYK2 pseudokinase (JH2) inhibition; type: cell-based; conditions: Homo sapiens, HEK-Blue, 1 ng/mL human recombinant IFNα, read-out: IFNα (TYK2 inhibitory activity, IC50)
Summary of the method: as §1

JAK1 kinase domain (JH1) = molecular target: T1, JAK1 kinase domain (JH1) (Homo sapiens, UniProt P23458); assay: HTRF-based selectivity assay, JAK1 catalytic domain; type: biochemical; conditions: recombinant catalytic domain, ATP 21.43 μM
T1 construct: recombinant purified His or GST-tagged catalytic domain for each enzyme; made in house
Description: (§2) Example B-2: HTRF-Based Selectivity Assay
(§3) The ability of compounds to inhibit the activity of JAK1, JAK2, JAK3 and TYK2 is measured using a recombinant purified His or GST-tagged catalytic domain for each enzyme (JAK1, JAK2 and TYK2 are generated in-house; JAK3 was purchased from Carna biosciences, Cat #08-046) in an HTRF format biochemical assay. The reactions employs a commercial peptide substrate from Cisbio (Cat #62TK0PEC). The basic assay protocol is as follows: first, 2.5 μL of diluted compounds (4×) in DMSO are dispensed into a 384-well Optiplate. Next, 2.5 μL of enzyme (final concentrations for enzymes are: TYK2—700 ng/mL, JAK1—80.6 ng/mL, JAK2—2.1 ng/mL and JAK3—171.8 ng/mL) is added and incubated at RT for 5-20 min. Finally, 5 μl of mixture of 2× ATP [Final concentration 20 μM for TYK2, 21.43 μM for JAK1, 14.7 μM for JAK2 and 2.12 μM for JAK3]+2× Substrate [Final concentration 217 nM for TYK2, 454.7 nM for JAK1, 200 nM for JAK2 and 257.4 nM for JAK3] is added to 384 well Optiplate. Composition of Kinase assay buffer used in the assay is as follows: HEPES 50 mM, EGTA 1 mM, MgCl2 10 mM, DTT 2 mM, Tween-20 0.01% and water. Then the plates are shaken and then incubated at 26.5° C. for 60 min.

JAK2 kinase domain (JH1) = molecular target: T2, JAK2 kinase domain (JH1) (Homo sapiens, UniProt O60674); assay: HTRF-based selectivity assay, JAK2 catalytic domain; type: biochemical; conditions: recombinant catalytic domain, ATP 14.7 μM
T2 construct: recombinant purified His or GST-tagged catalytic domain for each enzyme; made in house
Description: as §2, §3

JAK3 kinase domain (JH1) = molecular target: T3, JAK3 kinase domain (JH1) (Homo sapiens, UniProt P52333); assay: HTRF-based selectivity assay, JAK3 catalytic domain; type: biochemical; conditions: recombinant catalytic domain, ATP 2.12 μM
T3 construct: recombinant purified His or GST-tagged catalytic domain for each enzyme; purchased Carna biosciences 08-046
Description: as §2, §3

[3] = test system: HEK-Blue IL-2 reporter cells (IL-2-stimulated STAT5 SEAP reporter); assay: HEK-Blue IL-2 SEAP reporter assay for determining selectivity; type: cell-based; conditions: 4 ng/mL human recombinant IL-2
Summary of the method: (§4)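 Cells were plated for 20-22 h, then pretreated with serially diluted compound for 60 min. They were stimulated for 24 h with 4 ng/mL human recombinant IL-2 or 50 ng/mL human recombinant IFNγ, and SEAP induction was read with QUANTI-Blue.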

[4] = test system: HEK-Blue IFNγ reporter cells (IFNγ-stimulated STAT1 SEAP reporter); assay: HEK-Blue IFNγ SEAP reporter assay for determining selectivity; type: cell-based; conditions: Homo sapiens, HEK-Blue, 50 ng/mL human recombinant IFNγ, read-out: IFN-γ (SEAP selectivity, IC50)
Summary of the method: as §4

TYK2 kinase domain (JH1) = molecular target: T4, TYK2 kinase domain (JH1) (Homo sapiens, UniProt P29597); assay: HTRF-based selectivity assay, TYK2 catalytic domain; type: biochemical; conditions: recombinant catalytic domain, ATP 20 μM
T4 construct: recombinant purified His or GST-tagged catalytic domain for each enzyme; made in house
T4 sequence (P29597 897-1176 limits assumed): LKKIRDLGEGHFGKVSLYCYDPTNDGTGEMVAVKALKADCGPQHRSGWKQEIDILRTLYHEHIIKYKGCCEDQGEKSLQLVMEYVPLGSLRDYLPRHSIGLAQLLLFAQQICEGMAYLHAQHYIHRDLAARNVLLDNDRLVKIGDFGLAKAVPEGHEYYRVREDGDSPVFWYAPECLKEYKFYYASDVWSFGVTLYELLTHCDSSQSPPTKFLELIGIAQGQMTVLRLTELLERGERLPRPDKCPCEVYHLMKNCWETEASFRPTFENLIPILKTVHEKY
Description: as §2, §3

T1 sequence (P23458 875-1153 limits assumed): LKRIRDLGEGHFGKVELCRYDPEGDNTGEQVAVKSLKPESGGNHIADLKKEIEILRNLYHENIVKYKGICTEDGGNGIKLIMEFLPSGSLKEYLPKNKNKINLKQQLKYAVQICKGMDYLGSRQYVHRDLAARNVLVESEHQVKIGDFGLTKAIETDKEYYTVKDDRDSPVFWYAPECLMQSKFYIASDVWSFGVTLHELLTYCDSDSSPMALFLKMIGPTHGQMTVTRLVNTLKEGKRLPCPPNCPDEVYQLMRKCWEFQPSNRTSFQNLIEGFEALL
T3 sequence (P52333 822-1111 limits assumed): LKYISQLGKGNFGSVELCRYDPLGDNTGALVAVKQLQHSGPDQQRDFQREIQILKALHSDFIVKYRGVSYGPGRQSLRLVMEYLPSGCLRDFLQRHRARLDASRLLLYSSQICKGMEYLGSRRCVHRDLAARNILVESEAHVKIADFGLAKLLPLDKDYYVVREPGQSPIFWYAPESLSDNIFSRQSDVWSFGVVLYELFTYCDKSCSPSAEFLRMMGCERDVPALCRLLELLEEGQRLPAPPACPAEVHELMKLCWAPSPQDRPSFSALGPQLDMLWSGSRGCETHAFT
T2 sequence (O60674 849-1124 limits assumed): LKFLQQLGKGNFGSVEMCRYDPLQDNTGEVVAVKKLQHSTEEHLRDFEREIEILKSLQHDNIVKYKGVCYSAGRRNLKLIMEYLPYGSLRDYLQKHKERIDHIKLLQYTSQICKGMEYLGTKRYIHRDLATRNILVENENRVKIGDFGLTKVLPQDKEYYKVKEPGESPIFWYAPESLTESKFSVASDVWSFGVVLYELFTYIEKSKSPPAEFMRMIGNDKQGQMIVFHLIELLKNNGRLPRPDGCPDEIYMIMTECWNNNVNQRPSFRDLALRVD

Compound	pIC50 [1]	pIC50 [2]	pIC50 (JAK1 kinase domain (JH1))	pIC50 (JAK2 kinase domain (JH1))	pIC50 (JAK3 kinase domain (JH1))	pIC50 [3]	pIC50 [4]	pIC50 (TYK2 kinase domain (JH1))
[2H]C([2H])([2H])NC(=O)c1cnc(NC(=O)C2CC2)cc1Nc1cccc2c1N(C)Cc1nn(C)nc1-2 [Compound 45, 6-(cyclopropanecarboxamido)-4-((2,5-dimethyl-4,5-dihydro-2H-[1,2,3]triazolo[4,5-c]quinolin-6-yl)amino)-N-(methyl-d3)nicotinamide]	> 7.52	> 7.52	< 6.00	< 6.00	< 6.00	< 6.00	6.52 to 7.52	–
[2H]C([2H])([2H])NC(=O)c1nnc(NC(=O)C2CC2)cc1Nc1cccc2c1N(C)Cc1nn(C)nc1-2 [Compound 46, 6-(cyclopropanecarboxamido)-4-((2,5-dimethyl-4,5-dihydro-2H-[1,2,3]triazolo[4,5-c]quinolin-6-yl)amino)-N-(methyl-d3)pyridazine-3-carboxamide]	> 7.52	> 7.52	< 6.00	< 6.00	< 6.00	< 6.00	6.52 to 7.52	–
[2H]C([2H])([2H])NC(=O)c1cnc(NC(=O)C2CC2)cc1Nc1cccc2c1N(C([2H])([2H])[2H])Cc1nn(C)nc1-2 [Compound 47, 6-(cyclopropanecarboxamido)-N-(methyl-d3)-4-((2-methyl-5-(methyl-d3)-4,5-dihydro-2H-[1,2,3]triazolo[4,5-c]quinolin-6-yl)amino)nicotinamide]	> 7.52	> 7.52	< 6.00	–	< 6.00	< 6.00	6.52 to 7.52	< 6.00
[2H]C([2H])([2H])NC(=O)c1cnc(NC(=O)C2CC2)cc1Nc1cccc2c1N(C)C([2H])([2H])c1nn(C)nc1-2 [Compound 52, 6-(cyclopropanecarboxamido)-4-((2,5-dimethyl-4,5-dihydro-2H-[1,2,3]triazolo[4,5-c]quinolin-6-yl-4,4-d2)amino)-N-(methyl-d3)nicotinamide]	> 7.52	> 7.52	< 6.00	< 6.00	< 6.00	< 6.00	–	< 6.00
[2H]C([2H])([2H])NC(=O)c1cnc(NC(=O)C2CC2)cc1Nc1cccc2c1N(C)CCn1cnnc1-2 [Compound 78, 6-(cyclopropanecarboxamido)-N-(methyl-d3)-4-((7-methyl-6,7-dihydro-5H-benzo[f][1,2,4]triazolo[4,3-d][1,4]diazepin-8-yl)amino)nicotinamide]	6.52 to 7.52	< 6.00	< 6.00	< 6.00	< 6.00	–	–	< 6.00
[2H]C([2H])([2H])NC(=O)c1nnc(NC(=O)C2CC2)cc1Nc1nccc2c1N(C)Cc1nn(C)nc1-2 [Compound 88, 6-(cyclopropanecarboxamido)-4-((2,5-dimethyl-4,5-dihydro-2H-[1,2,3]triazolo[4,5-c][1,7]naphthyridin-6-yl)amino)-N-(methyl-d3)pyridazine-3-carboxamide]	> 7.52	> 7.52	< 6.00	< 6.00	–	6.00 to 6.52	6.52 to 7.52	< 6.00
[2H]C([2H])([2H])NC(=O)c1cnc(NC(=O)C2CC2)cc1Nc1nccc2c1N(C)Cc1nn(C)nc1-2 [Compound 89, 6-(cyclopropanecarboxamido)-4-((2,5-dimethyl-4,5-dihydro-2H-[1,2,3]triazolo[4,5-c][1,7]naphthyridin-6-yl)amino)-N-(methyl-d3)nicotinamide]	> 7.52	> 7.52	< 6.00	< 6.00	< 6.00	< 6.00	–	< 6.00
